Laboratory results from patent US10882869B2, “Condensed heterocyclic compounds and pesticides” (NISSAN CHEMICAL CORPORATION, priority 2015, dated 2021).

What was measured:
Assay type in all cases: in vivo
Plutella xylostella [1] = assay: Insecticidal test on Plutella xylostella (cabbage leaves soaked); settings: 144 h, 500 ppm solution, 3rd-instar larvae, 6 days after, 25° C.
Experimental: (§1) Leaves of cabbage were soaked in the solutions for about 10 seconds. After the soaking, the leaves were dried in air and placed in dishes. In each dish, five 3rd-instar larvae of Plutella xylostella were released, and the dishes were covered with lids and placed in an incubator at 25° C. 6 Days after, dead insects in the dishes were counted, and the mortality was calculated by using the same equation as in Test Example 1. The test was carried out in duplicate.

[2] = test system: Frankliniella occidentalis; assay: Insecticidal activity on Frankliniella occidentalis (kidney bean leaf spray); settings: 48 h, 500 ppm solution sprayed (2.5 mg/cm^2), larvae on kidney bean leaves, 2 days after
Experimental: In styrol cups having an inner diameter of 7 cm, wet filter paper was laid, kidney bean leaves cut into a 3 cm square were laid on the paper, and each leaf was inoculated with 20 larvae of Frankliniella occidentalis. […] 2.5 ml of the solutions were sprayed from a rotary spray tower into the styrol cups (2.5 mg/cm^2).
2 Days after, dead insects were counted, and insect damage on kidney bean leaves was examined. The mortality was calculated by using the same equation as in Test Example 1.
The insect damage degree was evaluated as follows. 1: 0 to 20% insect damage, 2: 20 to 50% insect damage, 3: 50 to 70% insect damage, and 4: 70% or higher insect damge. The test was carried out in duplicate.

Myzus persicae = assay: Insecticidal test on Myzus persicae (cabbage leaf spray); settings: 144 h, 500 ppm solution sprayed (2.5 mg/cm^2), apterous adults on cabbage leaves, 6 days after, 25° C.
Experimental: Wet absorbent cotton was laid on glass dishes having an inner diameter of 3 cm, and covered with leaves of cabbage cut into circles of the same diameter, and 4 apterous adults of Myzus persicae were released. […] The solutions were sprayed from a rotary spray tower (2.5 mg/cm^2), and the dishes were covered with lids and placed in an incubator at 25° C. 6 Days after, dead insects were counted, and the mortality was calculated by using the same equation as in Test Example 1. The test was carried out in duplicate.

Spodoptera litura = assay: Insecticidal test on Spodoptera litura (cabbage leaves soaked); settings: 144 h, 500 ppm solution, 3rd-instar larvae, 6 days after, 25° C.
Experimental: as §1, with “Spodoptera litura” for “Plutella xylostella”

Ctenocephalides felis = assay: Test on the effect on Ctenocephalides felis (thin film in glass container); settings: 96 h, application dose 10 μg/cm^2, adults, 4 days after release, 25° C.
Experimental: (§2) 350 μl of the solutions were applied to the bottoms and the side walls of glass containers with an inner wall surface area of 35 cm^2, and acetone was volatilized to prepare thin films of the compounds on the inner walls of the glass containers. Since the inner wall surface area of each glass container was 35 cm^2, the application dose was 10 μg/cm^2.
(§3) To each glass container, five adults (male and female) of Ctenocephalides felis were released, and the containers were covered with lids and placed in an incubator at 25° C. 4 Days after the release of the fleas, dead fleas were counted, and the mortality was calculated by using the same equation as in Test Example 1.

Plutella xylostella [3] = assay: Soil irrigation test on Plutella xylostella; settings: 144 h, 500 ppm solution, 10 ml soil irrigation of cabbage seedlings, leaves picked 5 days after, 3rd-instar larvae, 6 days after
Experimental: The soil around the bases of cabbage seedlings (at the 2.5-leaf stage) planted in plastic cups was irrigated with 10 ml of the solutions. After the irrigation, the cabbage seedlings were placed in a greenhouse. 5 Days after the irrigation, leaves of cabbage were picked and placed in dishes. In each dish, five 3rd-instar larvae of Plutella xylostella were released, and the dishes were covered with lids and placed in an incubator at 25° C. 6 Days after, dead insects in the dishes were counted, and the mortality was calculated by using the same equation as in Test Example 1. The test was carried out in duplicate.

Rhipicephalus sanguineus = assay: Test on the effect on Rhipicephalus sanguineus (thin film in glass container); settings: 96 h, application dose 10 μg/cm^2, protonymphs, 4 days after release, 25° C.
Experimental: as §2
as §3, with “protonymphs” for “adults”, “Rhipiceohalus sanguineus” for “Ctenocephalides felis”, “ticks,” for “fleas,”, “ticks” for “fleas”

Nilaparvata lugens [4] = assay: Systemic insecticidal test on Nilaparvata lugens (rice seedling root dip); settings: 20 ppm solution, rice seedling roots dipped 7 days, 3rd-instar larvae, 6 days after release, 25° C.
Experimental: 7 Days after, the rice seedlings were picked and put in test tubes, and in each tube, five 3rd-instar larvae of Nilaparvata lugens were released, and the tubes were capped with sponge and placed in an incubator at 25° C. 6 Days after the release of the insects, dead insects were counted, and the mortality (%) (the number of dead insects÷the number of released insects×100) was calculated. The test was carried out in duplicate.

Nilaparvata lugens [5] = assay: Insecticidal test on Nilaparvata lugens (rice sheaths soaked); settings: 144 h, 500 ppm solution, 3rd-instar larvae, 6 days after, 25° C.
Experimental: Rice sheaths were soaked in the solutions for about 10 seconds. After the soaking, the rice sheaths were dried in air and put in test tubes. In each tube, five 3rd-instar larvae of Nilaparvata lugens were released, and the tubes were capped with sponge and placed in an incubator at 25° C. 6 Days after, dead insects in the test tubes were counted, and the mortality (%) (the number of dead insects÷the number of released insects×100) was calculated. The test was carried out in duplicate.

CCS(=O)(=O)c1c(-c2nc3cc(C(F)(F)F)cnc3n2C)n(C)c2ccc(C(F)(F)F)cc12 [3-1-001a, 2-[3-(ethylsulfonyl)-1-methyl-5-(trifluoromethyl)-1H-indol-2-yl]-3-methyl-6-(trifluoromethyl)-3H-imidazo[4,5-b]pyridine]
mortality at 500 ppm (Plutella xylostella [1]): ≥ 90%
mortality at 500 ppm [2]: ≥ 50%
mortality at 500 ppm (Myzus persicae): ≥ 90%
mortality at 500 ppm (Spodoptera litura): ≥ 90%
mortality at 10 µg/cm2 (Ctenocephalides felis): ≥ 50%

CCSc1c(-c2nc3cc(C(F)(F)F)cnc3n2C)nc2cc(C(F)(F)F)ccn12 [1-1-002b, 2-[3-(ethylthio)-7-(trifluoromethyl)imidazo[1,2-a]pyridin-2-yl]-3-methyl-6-(trifluoromethyl)-3H-imidazo[4,5-b]pyridine]
mortality at 500 ppm (Plutella xylostella [1]): ≥ 90%
mortality at 500 ppm [2]: ≥ 50%
mortality at 500 ppm (Myzus persicae): ≥ 90%
mortality at 500 ppm (Spodoptera litura): ≥ 90%
mortality at 10 µg/cm2 (Ctenocephalides felis): ≥ 50%

CCSc1c(-c2nc3cc(C(F)(F)F)cnc3n2C)nc2cc(C(F)(F)F)ncn12 [1-1-055b, 2-[3-(ethylthio)-7-(trifluoromethyl)imidazo[1,2-c]pyrimidin-2-yl]-3-methyl-6-(trifluoromethyl)-3H-imidazo[4,5-b]pyridine]
mortality at 500 ppm [2]: ≥ 50%

CCS(=O)(=O)c1c(-c2nc3cc(C(F)(F)F)nc(C)c3n2C)nc2ccc(C(F)(F)F)cn12 [1-8-003a, 2-[3-(ethylsulfonyl)-6-(trifluoromethyl)imidazo[1,2-a]pyridin-2-yl]-3,4-dimethyl-6-(trifluoromethyl)-3H-imidazo[4,5-c]pyridine]
pest or weed control at 500 ppm (Plutella xylostella [3]): ≥ 90%
mortality at 500 ppm (Spodoptera litura): ≥ 90%
mortality at 10 µg/cm2 (Ctenocephalides felis): ≥ 50%

CCS(=O)(=O)c1c(-c2nc3cc(C(F)(F)F)cnc3n2C)nc2cc(C(F)(F)F)ncn12 [1-1-055a, 2-[3-(ethylsulfonyl)-7-(trifluoromethyl)imidazo[1,2-c]pyrimidin-2-yl]-3-methyl-6-(trifluoromethyl)-3H-imidazo[4,5-b]pyridine]
mortality at 500 ppm (Plutella xylostella [1]): ≥ 90%
mortality at 10 µg/cm2 (Rhipicephalus sanguineus): ≥ 50%
mortality at 10 µg/cm2 (Ctenocephalides felis): ≥ 50%

CCS(=O)(=O)c1c(-n2cc3ncc(C(F)(F)F)cc3n2)nc2cc(C(F)(F)F)ccn12 [1-10-002a, 2-[3-(ethylsulfonyl)-7-(trifluoromethyl)imidazo[1,2-a]pyridin-2-yl]-6-(trifluoromethyl)-2H-pyrazolo[4,3-b]pyridine]
pest or weed control at 500 ppm (Plutella xylostella [3]): ≥ 90%
mortality at 500 ppm (Plutella xylostella [1]): ≥ 90%
mortality at 500 ppm (Myzus persicae): ≥ 90%
mortality at 500 ppm (Spodoptera litura): ≥ 90%
mortality at 10 µg/cm2 (Ctenocephalides felis): ≥ 50%

CCS(=O)(=O)c1c(-c2cn3c(C)nc(C(F)(F)C(F)(F)F)cc3n2)nc2ccc(C(F)(F)F)cn12 [1-3-007a, 2-[3-(ethylsulfonyl)-6-(trifluoromethyl)imidazo[1,2-a]pyridin-2-yl]-5-methyl-7-(perfluoroethyl)imidazo[1,2-c]pyrimidine]
mortality at 500 ppm (Plutella xylostella [1]): ≥ 90%
mortality at 20 ppm (Nilaparvata lugens [4]): ≥ 90%
mortality at 500 ppm (Myzus persicae): ≥ 90%
mortality at 500 ppm (Spodoptera litura): ≥ 90%
mortality at 10 µg/cm2 (Ctenocephalides felis): ≥ 50%
mortality at 500 ppm (Nilaparvata lugens [5]): ≥ 90%

CCSc1c(-c2nc3cc(C(F)(F)F)ncc3n2C)nc2cc(Cl)ccn12 [1-8-006b, 2-[7-chloro-3-(ethylthio)imidazo[1,2-a]pyridin-2-yl]-3-methyl-6-(trifluoromethyl)-3H-imidazo[4,5-c]pyridine]
mortality at 500 ppm (Plutella xylostella [1]): ≥ 90%
mortality at 500 ppm (Spodoptera litura): ≥ 90%
mortality at 10 µg/cm2 (Rhipicephalus sanguineus): ≥ 50%
mortality at 10 µg/cm2 (Ctenocephalides felis): ≥ 50%

CCS(=O)(=O)c1c(-c2nc3cc(C(F)(F)F)cnc3n2C)nc2sc(C(F)(F)F)nn12 [2-1-002a, 5-(ethylsulfonyl)-6-[3-methyl-6-(trifluoromethyl)-3H-imidazo[4,5-b]pyridin-2-yl]-2-(trifluoromethyl)imidazo[2,1-b][1,3,4]thiadiazole]
pest or weed control at 500 ppm (Plutella xylostella [3]): ≥ 90%
mortality at 500 ppm (Plutella xylostella [1]): ≥ 90%
mortality at 20 ppm (Nilaparvata lugens [4]): ≥ 90%
mortality at 500 ppm [2]: ≥ 50%
mortality at 500 ppm (Myzus persicae): ≥ 90%

CCSc1c(-c2nc3cc(C(F)(F)F)cnc3n2C)n(C)c2ccc(C(F)(F)F)cc12 [3-1-001b, 2-[3-(ethylthio)-1-methyl-5-(trifluoromethyl)-1H-indol-2-yl]-3-methyl-6-(trifluoromethyl)-3H-imidazo[4,5-b]pyridine]
mortality at 500 ppm (Plutella xylostella [1]): ≥ 90%
mortality at 500 ppm [2]: ≥ 50%
mortality at 10 µg/cm2 (Ctenocephalides felis): ≥ 50%

CCSc1c(-c2nc3cc(SC(F)(F)F)cnc3n2C)nc2cc(C(F)(F)F)ccn12 [1-1-027b, 2-[3-(ethylthio)-7-(trifluoromethyl)imidazo[1,2-a]pyridin-2-yl]-3-methyl-6-((trifluoromethyl)thio)-3H-imidazo[4,5-b]pyridine]
mortality at 500 ppm (Plutella xylostella [1]): ≥ 90%
mortality at 500 ppm (Spodoptera litura): ≥ 90%
mortality at 10 µg/cm2 (Rhipicephalus sanguineus): ≥ 50%
mortality at 10 µg/cm2 (Ctenocephalides felis): ≥ 50%

CCS(=O)(=O)c1c(-n2cc3cnc(C(F)(F)F)cc3n2)nc2cc(C(F)(F)F)ccn12 [1-11-001a, 2-[3-(ethylsulfonyl)-7-(trifluoromethyl)imidazo[1,2-a]pyridin-2-yl]-6-(trifluoromethyl)-2H-pyrazolo[4,3-c]pyridine]
pest or weed control at 500 ppm (Plutella xylostella [3]): ≥ 90%
mortality at 500 ppm (Plutella xylostella [1]): ≥ 90%
mortality at 20 ppm (Nilaparvata lugens [4]): ≥ 90%
mortality at 500 ppm (Myzus persicae): ≥ 90%
mortality at 500 ppm (Spodoptera litura): ≥ 90%
mortality at 10 µg/cm2 (Ctenocephalides felis): ≥ 50%
mortality at 500 ppm (Nilaparvata lugens [5]): ≥ 90%

CCS(=O)(=O)c1c(-c2cn3ncc(C(F)(F)F)cc3n2)nc2cc(C(F)(F)F)ccn12 [1-4-001a, 2-[3-(ethylsulfonyl)-7-(trifluoromethyl)imidazo[1,2-a]pyridin-2-yl]-7-(trifluoromethyl)imidazo[1,2-b]pyridazine]
pest or weed control at 500 ppm (Plutella xylostella [3]): ≥ 90%
mortality at 500 ppm (Plutella xylostella [1]): ≥ 90%
mortality at 500 ppm (Myzus persicae): ≥ 90%
mortality at 500 ppm (Spodoptera litura): ≥ 90%
mortality at 10 µg/cm2 (Ctenocephalides felis): ≥ 50%

CCS(=O)(=O)c1c(-c2nc3cc(C(F)(F)F)cnc3n2C)nc2cnc(C(F)(F)F)cn12 [1-1-029a, 2-[3-(ethylsulfonyl)-6-(trifluoromethyl)imidazo[1,2-a]pyrazin-2-yl]-3-methyl-6-(trifluoromethyl)-3H-imidazo[4,5-b]pyridine]
pest or weed control at 500 ppm (Plutella xylostella [3]): ≥ 90%
mortality at 500 ppm (Plutella xylostella [1]): ≥ 90%
mortality at 500 ppm (Spodoptera litura): ≥ 90%
mortality at 10 µg/cm2 (Ctenocephalides felis): ≥ 50%

CCSc1c(-c2nc3cc(C(F)(F)F)cnc3n2C)nc2ncc(C(F)(F)F)cn12 [1-1-054b, 2-[3-(ethylthio)-6-(trifluoromethyl)imidazo[1,2-a]pyrimidin-2-yl]-3-methyl-6-(trifluoromethyl)-3H-imidazo[4,5-b]pyridine]
mortality at 500 ppm [2]: ≥ 50%
mortality at 10 µg/cm2 (Ctenocephalides felis): ≥ 50%
